Our source for the Ki values is patent publication US20130072468A1, “SUBSTITUTED PIPERAZINES AS CB1 ANTAGONISTS” (priority 2011, published 2013).

Usually Ki stands for a dissociation constant, usually derived from enzyme kinetics or from competition with a known ligand.

The target of the assay is T1, cannabinoid CB1 (Homo sapiens, UniProt P21554).
T1 construct: purchased
T1 sequence (P21554 whole entry): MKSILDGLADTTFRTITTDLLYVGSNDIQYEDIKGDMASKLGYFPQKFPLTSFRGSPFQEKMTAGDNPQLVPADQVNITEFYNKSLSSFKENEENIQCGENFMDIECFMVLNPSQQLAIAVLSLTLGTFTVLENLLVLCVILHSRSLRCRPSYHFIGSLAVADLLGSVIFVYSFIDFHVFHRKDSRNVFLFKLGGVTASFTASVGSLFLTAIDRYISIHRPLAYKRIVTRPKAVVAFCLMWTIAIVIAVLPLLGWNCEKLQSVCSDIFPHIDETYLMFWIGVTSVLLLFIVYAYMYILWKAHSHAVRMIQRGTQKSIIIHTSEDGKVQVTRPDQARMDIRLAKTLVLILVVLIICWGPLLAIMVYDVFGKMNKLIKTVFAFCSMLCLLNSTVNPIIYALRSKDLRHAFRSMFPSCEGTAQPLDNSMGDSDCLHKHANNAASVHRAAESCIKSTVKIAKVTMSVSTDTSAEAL
Kind of assay: Competition binding assay for cannabinoid CB1 affinity (3H-CP55,940 displacement, membranes). As to conditions: competition binding vs 0.5 nM 3H-CP55,940; Ki by Cheng-Prusoff; read-out: Ki values in the assay described above. The procedure: Method for Evaluating Cannabinoid CB1 and CB affinity
Competition binding assays for cannabinoid CB1 and CB2 affinity were performed by incubating commercially purchased membranes prepared from cells expressing each receptor subtype (8 μg pro) with 0.5 nM ^3H-CP55,940, a non-selective cannabinoid agonist, along with concentrations of drug ranging from 0.0001-3 μM in Buffer A (5 mM MgCl2, 2.5 mM EDTA and […] BSA). Non-specific binding was defined in the presence of 10 μM CP55,940. For saturation studies, concentrations of ^3H-CP55,940 ranging from 0.1-5 nM were incubated with membranes in the presence and absence of 10 μM CP55,940. Assays were terminated after incubation for 1½ hours by rapid filtration onto 0.3 polyethylenamine treated GF/C filterplates using a BRANDEL cell harvester. The plates were dried and MICROSCINT scintillation cocktail was added, after which the bound radioactivity was quantified using a TOPCOUNT scintillation counter.
The dissociation constant (Kd) of ^3H-CP55,940 at the CB1 and CB2 receptor were determined by plotting specific binding at each concentration of radioligand, and analysis by non-linear regression. For competition studies, the concentration of each drug that inhibited 50 percent of ^3H-CP55,940 binding (IC50) was determined by non-linear regression analysis of the radioligand displacement curves. Affinity constants (Ki) were calculated using the equation derived by Cheng and Prusoff (1973), defined as: IC50/1+[conc. ligand/Kd].
For the molecule `COc1ccc(N2CCN(Cc3ccccc3)C[C@H]2c2ccc(Cl)cc2)c(Cl)c1` [Example 807], the Ki was at least 900 nM.
The same measure for `COc1cccc([C@@H]2CNCCN2c2ccc(C#N)cc2Cl)c1` [Example 813b]: at least 900 nM.
The same measure for `COC(=O)c1ccc(N2CCN(Cc3ccccc3)C[C@H]2c2ccc(Cl)cc2)cc1` [Example 817]: at least 900 nM; for `COc1ccc(N2CCNC[C@H]2c2ccc(Cl)cc2)c(F)c1` [Example 822]: at least 900 nM; for `OCc1ccc(N2CCN(Cc3ccccc3)C[C@H]2c2ccc(Cl)cc2)cc1` [Example 824]: at least 900 nM.
For `N#Cc1ccc(N2CCNC[C@H]2c2ccc(Cl)cc2)nc1` [Example 826b], the Ki was at least 900 nM.
The same measure for `N#Cc1cccnc1N1CCNC[C@H]1c1ccc(Cl)cc1` [Example 826d]: at least 900 nM; for `COc1ccc(N2CCNC[C@H]2c2ccc(F)cc2)c(C#N)c1` [Example 826e]: at least 900 nM.
For `O=C1CN(Cc2ccccc2)C[C@@H](c2ccc(Cl)cc2)N1c1ccc(O)cc1Cl` [Example 830], the Ki was at least 900 nM.
The same measure for `O=C1CN(Cc2ccccc2)C[C@@H](c2ccc(Cl)cc2)N1c1ccc(O)cc1` [Example 831]: at least 900 nM; for `CC(O)(CN1CCN(c2ccc(Cl)cc2Cl)[C@H](c2ccc(Cl)cc2)C1)C(=O)O` (some centres unmarked) [Example 877b]: at least 900 nM.
For `C[C@@](O)(CN1CCN(c2ccc(Cl)cc2Cl)[C@H](c2ccc(Cl)cc2)C1)c1ccc(Cl)cc1` [Example 930] the value was 0.2 to 100 nM; for `C[C@@](O)(CN1CCN(c2ccc(C#N)cc2Cl)[C@H](c2ccc(Cl)cc2)C1)c1cc(F)cc(F)c1` [Example 949], 0.2 to 100 nM.
For `C[C@@](O)(CN1CCN(c2ccc(Cl)cc2Cl)[C@H](c2ccc(Cl)cc2)C1)c1ccc(N)nc1` [Example 1037] the value was 0.2 to 100 nM; for `CC(C)(C)CCN1CCC(C(C)(O)CN2CCN(c3ccc(Cl)cc3Cl)[C@H](c3ccc(Cl)cc3)C2)CC1` (some centres unmarked) [Example 1089], about 873 nM.
In the case of `CC(O)(CN1CCN(c2ccc(Cl)cc2Cl)[C@H](c2ccc(Cl)cc2)C1)C1CCN(S(=O)(=O)C2CC2)CC1` (some centres unmarked) [Example 1091], the Ki is 0.2 to 100 nM.
Take `CC(C)(C)OC(=O)N[C@@H](C(=O)N1CCN(c2ccc(Cl)cc2Cl)[C@H](c2ccc(Cl)cc2)C1)c1ccc(Cl)cc1` [Example 1167a]: the Ki is at least 900 nM.
